Laboratory results published in patent US8642788B2, “Activators of executioner procaspases 3, 6 and 7” (The Regents of the University of California, priority 2008, dated 2014).

Legend:
[1] = target: T1, procaspase-6 (Homo sapiens, UniProt P55212); assay: Executioner procaspase-6 activation assay (Ac-VEID-AFC fluorogenic substrate); type: biochemical; conditions: incubation with compound for 5 h at 37° C.; 100 nM procaspase
T1 sequence (P55212 1-293): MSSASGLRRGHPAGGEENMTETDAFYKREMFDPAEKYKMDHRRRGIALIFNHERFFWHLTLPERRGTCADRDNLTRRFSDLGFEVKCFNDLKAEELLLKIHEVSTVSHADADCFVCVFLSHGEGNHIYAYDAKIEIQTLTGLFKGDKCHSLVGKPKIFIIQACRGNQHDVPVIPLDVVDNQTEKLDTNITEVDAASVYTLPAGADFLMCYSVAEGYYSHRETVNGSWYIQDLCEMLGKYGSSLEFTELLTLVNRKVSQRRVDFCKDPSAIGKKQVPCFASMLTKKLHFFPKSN
Protocol: The executioner procaspase-3, -6 and -7 activation assay protocol involves incubating the target protein at the physiologically-relevant concentration of 100 nM with activating compounds (ranging from 100 nM to 100 uM) in a total volume of 50 μL consisting of a reaction buffer of 50 mM HEPES, pH 7.4, 50 mM KCl, 1 mM DTT and 0.01% Triton-X100 (to reduce false positive hits due to compound aggregation). The procaspase/small molecule incubations are then agitated at 37° C. and assayed at various time points by addition of the fluorogenic peptide substrate 7-Amino-4-trifluoromethylcoumarin-DEVD (Ac-DEVD-AFC) (procaspases-3, -7) or Ac-VEID-AFC (procaspase-6) to a final concentration of 25 μM and analyzed by a kinetic 30 minute assay (excitation 365 nm and emission 495 nm). The final concentration of DMSO in each well is 3% and has no effect on enzyme stability or activity. […] All components of the assay including protein, substrate and inhibitor are stored as frozen aliquots and thawed immediately prior to the assay.
Tables 1 and 2. Procaspase activation as a result of incubation with compound for 5 h at 37° C. (+++ EC50˜0.5-10 μM; ++ EC50˜10-50 μM; + EC50˜50-200 μM; -no activation observed; ND not determined).

[2] = target: T2, procaspase-3 (Homo sapiens, UniProt P42574); assay: Executioner procaspase-3 activation assay (Ac-DEVD-AFC fluorogenic substrate); type: biochemical; conditions: incubation with compound for 5 h at 37° C.; 100 nM procaspase; read-out: Procaspase Activation 3
T2 construct: His6 (C); made in house; host or cells: E. coli BL21(DE3)RP, pET-23b
T2 sequence (P42574 1-277): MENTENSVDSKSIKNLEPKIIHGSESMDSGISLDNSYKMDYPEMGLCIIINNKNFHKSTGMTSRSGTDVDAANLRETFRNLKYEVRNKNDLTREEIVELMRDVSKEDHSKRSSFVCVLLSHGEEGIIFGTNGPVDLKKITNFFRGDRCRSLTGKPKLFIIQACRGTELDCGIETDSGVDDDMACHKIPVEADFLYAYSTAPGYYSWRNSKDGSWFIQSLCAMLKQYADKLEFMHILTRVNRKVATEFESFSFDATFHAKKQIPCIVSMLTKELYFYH
Protocol: The executioner procaspase-3, -6 and -7 activation assay protocol involves incubating the target protein at the physiologically-relevant concentration of 100 nM with activating compounds (ranging from 100 nM to 100 uM) in a total volume of 50 μL consisting of a reaction buffer of 50 mM HEPES, pH 7.4, 50 mM KCl, 1 mM DTT and 0.01% Triton-X100 (to reduce false positive hits due to compound aggregation). […] All components of the assay including protein, substrate and inhibitor are stored as frozen aliquots and thawed immediately prior to the assay.

Row | SMILES | EC50 [1] [µM] | EC50 [2] [µM]
1 | O=C(Nc1cccc(-c2cn3ccccc3n2)c1)c1cc2cccc(O)c2oc1=O [1541A, 8-Hydroxy-2-oxo-2H-chromene-3-carboxylic acid (3-imidazo[1,2-a]pyridin-2-yl-phenyl)-amide] | > 100 | 0.5 to 10
2 | O=C(Nc1cccc(-c2cn3ccccc3n2)c1)c1cc2cccc(OC(F)(F)F)c2oc1=O [1541B, 2-Oxo-8-trifluoromethoxy-2H-chromene-3-carboxylic acid (3-imidazo[1,2-a]pyridin-2-yl-phenyl)-amide] | > 100 | > 100
3 | COc1ccc2cc(C(=O)Nc3cccc(-c4cn5ccccc5n4)c3)c(=O)oc2c1 [1541C, 7-Methoxy-2-oxo-2H-chromene-3-carboxylic acid (3-imidazo[1,2-a]pyridin-2-yl-phenyl)-amide] | > 100 | > 100
4 | COc1cc(CN2CCOCC2)c2oc(=O)c(C(=O)Nc3cccc(-c4cn5ccccc5n4)c3)cc2c1 [1541D, 6-Methoxy-8-morpholin-4-ylmethyl-2-oxo-2H-chromene-3-carboxylic acid (3-imidazo[1,2-a]pyridin-2-yl-phenyl)-amide] | > 100 | > 100
5 | COc1cccc2cc(C(=O)Nc3cccc(-c4nc5ccccc5[nH]4)c3)c(=O)oc12 [1541F, 8-Methoxy-2-oxo-2H-chromene-3-carboxylic acid [3-(1H-benzoimidazol-2-yl)-phenyl]-amide] | > 100 | > 100
6 | COc1cccc2cc(C(=O)Nc3ccccc3)c(=O)oc12 [1541H, 8-Methoxy-2-oxo-2H-chromene-3-carboxylic acid phenylamide] | > 100 | > 100
7 | COc1cccc2cc(C(=O)Nc3cccc(N4CCOCC4)c3)c(=O)oc12 [1541I, 8-Methoxy-2-oxo-2H-chromene-3-carboxylic acid (3-morpholin-4-yl-phenyl)-amide] | > 100 | > 100
8 | O=C(Nc1cccc(-c2cn3ccccc3n2)c1)c1cc2cc(Br)ccc2oc1=O [compound 1, 6-Bromo-2-oxo-2H-chromene-3-carboxylic acid (3-imidazo[1,2-a]pyridin-2-yl-phenyl)-amide] | 50 to 200 | 50 to 200
9 | O=C(Nc1cccc(-c2cn3ccccc3n2)c1)c1cc2cccc(F)c2oc1=O [compound 2, 8-Fluoro-2-oxo-2H-chromene-3-carboxylic acid (3-imidazo[1,2-a]pyridin-2-yl-phenyl)-amide] | 0.5 to 10 | 0.5 to 10
10 | O=C(Nc1cccc(-c2cn3ccccc3n2)c1)c1cc2ccc(O)c(O)c2oc1=O [compound 3, 7,8-Dihydroxy-2-oxo-2H-chromene-3-carboxylic acid (3-imidazo[1,2-a]pyridin-2-yl-phenyl)-amide] | > 100 | 50 to 200
11 | O=C(Nc1cccc(-c2cn3ccccc3n2)c1)c1cc2cccc(Br)c2oc1=O [compound 4, 8-Bromo-2-oxo-2H-chromene-3-carboxylic acid (3-imidazo[1,2-a]pyridin-2-yl-phenyl)-amide] | > 100 | > 100
12 | CCOc1cccc2cc(C(=O)Nc3cccc(-c4cn5ccccc5n4)c3)c(=O)oc12 [compound 5, 8-Ethoxy-2-oxo-2H-chromene-3-carboxylic acid (3-imidazo[1,2-a]pyridin-2-yl-phenyl)-amide] | > 100 | > 100
13 | COc1ccc2oc(=O)c(C(=O)Nc3cccc(-c4cn5ccccc5n4)c3)cc2c1 [compound 6, 6-Methoxy-2-oxo-2H-chromene-3-carboxylic acid (3-imidazo[1,2-a]pyridin-2-yl-phenyl)-amide] | > 100 | > 100
14 | O=C(Nc1cccc(-c2cn3ccccc3n2)c1)c1cc2cc(O)c(O)cc2oc1=O [compound 7, 6,7-Dihydroxy-2-oxo-2H-chromene-3-carboxylic acid (3-imidazo[1,2-a]pyridin-2-yl-phenyl)-amide] | > 100 | > 100
15 | COc1ccc2cc(C(=O)Nc3cccc(-c4cn5ccccc5n4)c3)c(=O)oc2c1OC [compound 8, 7,8-Dimethoxy-2-oxo-2H-chromene-3-carboxylic acid (3-imidazo[1,2-a]pyridin-2-yl-phenyl)-amide] | – | > 100
16 | O=C(Nc1cccc(-c2cn3ccccc3n2)c1)c1cc2cc(OC(F)(F)F)ccc2oc1=O [compound 9, 6-Trifluoromethoxy-2-oxo-2H-chromene-3-carboxylic acid (3-imidazo[1,2-a]pyridin-2-yl-phenyl)-amide] | > 100 | > 100
17 | O=C(Nc1cccc(-c2cn3ccccc3n2)c1)c1cc2cc(I)ccc2oc1=O [compound 10, 6-Iodo-2-oxo-2H-chromene-3-carboxylic acid (3-imidazo[1,2-a]pyridin-2-yl-phenyl)-amide] | > 100 | > 100
18 | O=C(Nc1cccc(-c2cn3ccccc3n2)c1)c1cc2cc(O)ccc2oc1=O [compound 11, 6-Hydroxy-2-oxo-2H-chromene-3-carboxylic acid (3-imidazo[1,2-a]pyridin-2-yl-phenyl)-amide] | > 100 | > 100
19 | O=C(Nc1cccc(-c2cn3ccccc3n2)c1)c1cc2ccccc2oc1=O [compound 13, 2-oxo-2H-chromene-3-carboxylic acid (3-imidazo[1,2-a]pyridin-2-yl-phenyl)-amide] | – | > 100
20 | COc1cc(N2CCOCC2)c2oc(=O)c(C(=O)Nc3cccc(-c4cn5ccccc5n4)c3)cc2c1 [compound 14, 6-Methoxy-8-morpholin-4-yl-2-oxo-2H-chromene-3-carboxylic acid (3-imidazo[1,2-a]pyridin-2-yl-phenyl)-amide] | > 100 | > 100
21 | COc1cccc2cc(C(=O)Nc3cccc(-c4ccncc4)c3)c(=O)oc12 [compound 20, 8-Methoxy-2-oxo-2H-chromene-3-carboxylic acid (3-pyridin-4-yl-phenyl)-amide] | > 100 | > 100
22 | COc1cccc2cc(C(=O)Nc3cccc(-c4cn5ccccc5n4)c3)oc12 [compound 179, 7-Methoxy-benzofuran-2-carboxylic acid (3-imidazo[1,2-a]pyridin-2-yl-phenyl)-amide] | 10 to 50 | 10 to 50
23 | O=C(Nc1cccc(-c2cn3ccccc3n2)c1)C1=Cc2cc(Cl)ccc2OC1 [compound 180, 6-Chloro-2H-chromene-3-carboxylic acid (3-imidazo[1,2-a]pyridin-2-yl-phenyl)-amide] | > 100 | 50 to 200
24 | O=C(Nc1cccc(-c2cn3ccccc3n2)c1)c1cc2ccccc2[nH]c1=O [compound 181, 2-Oxo-1,2-dihydro-quinoline-3-carboxylic acid (3-imidazo[1,2-a]pyridin-2-yl-phenyl)-amide] | 10 to 50 | 10 to 50
25 | COc1cccc2c1OCC(C(=O)Nc1cccc(-c3cn4ccccc4n3)c1)=C2 [compound 182, 8-Methoxy-2H-chromene-3-carboxylic acid (3-imidazo[1,2-a]pyridin-2-yl-phenyl)-amide] | > 100 | > 100
26 | COc1cccc2cc(C(=O)Nc3ccc(-c4nc5ccccc5[nH]4)cc3)c(=O)oc12 [compound 183, 8-Methoxy-2-oxo-2H-chromene-3-carboxylic acid [4-(1H-benzoimidazol-2-yl)-phenyl]-amide] | – | 0.5 to 10
27 | COc1cccc2cc(C(=O)Nc3cccc(-c4cn5ccccc5n4)c3)c(=O)oc12 [compound 1541, 8-Methoxy-2-oxo-2H-chromene-3-carboxylic acid (3-imidazo[1,2-a]pyridin-2-yl-phenyl)-amide] | 0.5 to 10 | –
